The record followed here is ChEMBL document CHEMBL3217526, “Bioguided discovery and pharmacophore modeling of the mycotoxic indole diterpene alkaloids penitrems as breast cancer proliferation, migration, and invasion inhibitors” (Medchemcomm, 2013).

Structures are written as SMILES. pIC50: −log10 of the molar value. Active and inactive are the calls of the source. No cut-off for these calls is given here.

For orientation: pIC50 means the negative decadic logarithm of the IC50, by convention in mol/L. A higher pIC50 goes with a small IC50. The term inhibition denotes the drop in the measured response relative to a control, in per cent.

The test system of data set [1] is MDA-MB-231. Description: Antiproliferative activity against human MDA-MB-231 cells after 72 hrs by MTT assay. The class given is functional, cell-based. The settings on record: MDA-MB-231, 72 h. On the technique in general: Tetrazolium dyes change colour on reduction, which living cells bring about.
For data set [2], the system named is MCF7. In words: Antiproliferative activity against human MCF7 cells after 72 hrs by MTT assay. The class given is functional, cell-based. Conditions: MCF7, 72 h.
Data set [3] concerns Caenorhabditis elegans. Description: Toxicity in L1 stage Caenorhabditis elegans N2 assessed as viability and reproduction at 10 uM. Format: organism-based. The settings on record: in vivo.
The test system of data set [4] is Caenorhabditis elegans. Description: In vivo inhibition of BK channel in L1 stage Caenorhabditis elegans N2 assessed as increase in reversals at 1 uM. Format: organism-based.
Data set [5] concerns Caenorhabditis elegans. In words: Toxicity in L1 stage Caenorhabditis elegans N2 assessed as viability and reproduction at 50 uM. The class given is organism-based. Conditions: in vivo.
In data set [6] the test system is MDA-MB-231. In words: Antimigratory activity in human MDA-MB-231 cells after 24 hrs by wound healing assay. Format: functional, cell-based. Conditions: MDA-MB-231, 24 h.
For data set [7], the system named is MDA-MB-231. In words: Antiinvasive activity against human MDA-MB-231 cells assessed as inhibition of cell invasion at 15 uM after 24 hrs by BME Cell invasion assay kit. The class given is functional.

`CC(C)=CCC[C@]1(C)[C@@H](O)CC[C@@]2(C)[C@H]1CC[C@H]1Cc3c([nH]c4ccccc34)[C@@]12C` [EMINDOLE SB]: the pIC50 is 4.67 in data set [1], 5.00 in data set [2] and 4.72 in data set [6]. Further, the Activity entry in data set [3], in data set [4] and in data set [5] was “Non-toxic” in each case.

Consider `C=C(C)[C@H]1O[C@H]2CC[C@@]3(C)[C@@](O)(CC[C@H]4[C@@H]5OC(C)(C)[C@H]6C[C@@H]7C(=C)Cc8c(Br)cc9[nH]c(c5c9c8[C@@]76O)[C@@]43C)[C@]23O[C@@H]3[C@H]1O`, for which the negative-log IC50 (pIC50) in data set [1] is 5.07; in data set [2], 4.78; in data set [6], 5.02. For the same compound, the results for the Activity result in data set [3], in data set [4] and in data set [5] were “Non-toxic”, “Toxic” and “Non-toxic”, respectively.

For the compound `CC(C)(O)[C@@H]1CC[C@]2(C)[C@H](CC[C@@]3(C)[C@H]2CC[C@H]2Cc4c([nH]c5ccccc45)[C@@]23C)O1` [PASPALINE], the results for the negative-log IC50 (pIC50) in data set [1], in data set [2] and in data set [6] were 4.91, 4.89 and 5.12, respectively. In addition, the Activity entry in data set [3] and in data set [5] was “Non-toxic” in each case.

`C=C(C)[C@H]1O[C@H]2CC[C@@]3(C)[C@@](O)(CC[C@H]4[C@@H]5OC(C)(C)[C@H]6C[C@@H]7C(=C)Cc8c(Cl)cc9[nH]c(c5c9c8[C@@]76O)[C@@]43C)[C@]23O[C@@H]3[C@H]1O` [PENITREM A]: the values for the Activity entry in data set [3], in data set [4] and in data set [5] were “Non-toxic”, “Toxic” and “Non-toxic”, respectively.

For the compound `C=C1Cc2c(Cl)cc3[nH]c4c5c3c2[C@H]2[C@@H]1C[C@@H]2C(C)(C)O[C@H]5[C@@H]1CC[C@@]2(O)[C@@]35O[C@@H]3[C@@H](O)[C@@H](C(=C)C)O[C@H]5CC[C@]2(C)[C@@]41C` [PENITREM F], in data set [7], the inhibition result is “inactive”. Also, the negative logarithm of the IC50 (pIC50) in data set [1] was 4.86; in data set [2] it was 4.82; in data set [6], 4.46. In addition, the Activity result in data set [3] and in data set [5] was “Non-toxic” throughout.

Regarding `C=C1Cc2c(Br)cc3[nH]c4c5c3c2[C@H]2[C@@H]1C[C@@H]2C(C)(C)O[C@H]5[C@@H]1CC[C@@]2(O)[C@@]35O[C@@H]3[C@@H](O)[C@@H](C(=C)C)O[C@H]5CC[C@]2(C)[C@]41C`, the results for the pIC50 in data set [1], in data set [2] and in data set [6] were 4.73, 4.71 and 4.52, respectively. Also, the Activity result in data set [3] and in data set [5] was “Non-toxic” throughout.

For the compound `C=C1Cc2ccc3[nH]c4c5c3c2[C@H]2[C@@H]1C[C@H]2C(C)(C)O[C@H]5[C@@H]1CC[C@@]2(O)C3=C[C@@H](O)[C@@H](C(=C)C)O[C@H]3CC[C@]2(C)[C@@]41C` [PENITREM D], in data set [7] (MDA-MB-231, 24 h), the inhibition at 15 µM is 50%. Also, the pIC50 in data set [1] was 4.53; in data set [2], 5.08; in data set [6], 5.04. Also, the Activity entry in data set [3] and in data set [5] was “Non-toxic” throughout.
